In patent US20200352905A1, “6-(2,4-DICHLOROPHENYL)-5-[4-[(3S)-1-(3-FLUOROPROPYL)PYRROLIDIN-3-YL]OXYPHENYL]-8,9-DIHYDRO-7H-BENZO[7]ANNULENE-2-CARBOXYLIC ACID FOR USE IN METASTATIC OR ADVANCED BREAST CANCER PATIENTS” (SANOFI, priority 2019, published 2020):

What was measured:
[1] = TED14856 Part B (dose expansion, 400 mg QD): safety, TEAEs; assay type: in vivo, human
Protocol: Part B: Dose expansion study to evaluate the efficacy, safety, PK and PD of compound (1) administered at the RD (from Part A). […] A BID regimen (without omission on Day 2) may also be explored if found to be needed. Safety population includes all patients exposed to at least one dose of the study treatment. Treatment emergent adverse events (TEAEs) are analyzed according to current version of the Medical Dictionary for Regulatory Activities (MedDRA) dictionary. Laboratory abnormalities are analyzed according to the NCI-CTCAE v.4.03. Type, frequency, seriousness, severity and relatedness of study treatment TEAEs is analyzed on the safety population for each dose level. Similar analyses as for the escalation phase shall be performed.

[2] = system: ER-positive and HER2-negative advanced breast cancer; experiment: TED14856 pooled population (Part A >=150 mg and Part B): post-hoc efficacy analyses and sub-populations; conditions: for Best Overall Response: Complete Response (CR), number of patients / Best Overall Response: Partial Response (PR), % of patients / Best Overall Response: Partial Response (PR), number of patients / Best Overall Response: Progressive Disease (PD), % of patients / Best Overall Response: Progressive Disease (PD), number of patients / Best Overall Response: Stable Disease (SD), % of patients / Best Overall Response: Stable Disease (SD), number of patients / Clinical Benefit Rate, % of patients / Clinical Benefit Rate, number of patients / Overall Response Rate (confirmed CR and PR), % of patients / Overall Response Rate (confirmed CR and PR), number of patients: no prior mTOR, CDK4/6, fulvestrant; for Clinical Benefit Rate (CBR): pooled population
[3] = All, pooled Part A ≥150 mg and Part B 400 mg (N = 14)
[4] = TED14856 2017-2019, pooled population n=59, setting 2-9L, prior CDK4/6, mTOR, fulvestrant allowed
[5] = TED14856 2017-2019, sub-population n=14, setting 2L+, no prior CDK4/6, mTOR, fulvestrant
[6] = TED14856 2017-2019, sub-population n=32, setting 3L, prior CDK4/6 allowed, prior mTOR not allowed, prior fulvestrant allowed
[7] = sub-population of 14 patients with neither prior targeted therapies nor SERD (3/14)

## O=C(O)c1ccc2c(c1)CCCC(c1ccc(Cl)cc1Cl)=C2c1ccc(O[C@H]2CCN(CCCF)C2)cc1 [compound (1), 6-(2,4-dichlorophenyl)-5-[4-[(3S)-1-(3-fluoropropyl)pyrrolidin-3-yl]oxyphenyl]-8,9-dihydro-7H-benzo[7]annulene-2-carboxylic acid]
[1]; Part B
  Grade 3 laboratory abnormality: ALK increase: 2 patients
  Grade 3 laboratory abnormality: ALT increase: 4 patients
  Grade 3 laboratory abnormality: AST increase: 6 patients
  Grade 3 laboratory abnormality: anemia: 1 patients
  Grade 3 laboratory abnormality: bilirubin increase: 3 patients
  Grade 3 laboratory abnormality: hypercalcemia: 1 patients
  Grade 3 laboratory abnormality: hyponatremia: 2 patients
  Grade 3 laboratory abnormality: hypophosphatemia: 2 patients
  Grade 3 laboratory abnormality: lymphopenia: 5 patients
  Grade 3 laboratory abnormality: neutropenia: 1 patients
  Grade 4 laboratory abnormality: hypocalcemia: 1 patients
  Grade 4 laboratory abnormality: hypokalemia: 1 patients
  Grade 4 laboratory abnormality: hyponatremia: 1 patients
[1]; Part B, 400 mg, N=49
  Patients with Gr3 TEAE: Abdominal pain: 0 n
  Patients with Gr3 TEAE: Abdominal pain upper: 0 n
  Patients with Gr3 TEAE: Arthralgia: 0 n
  Patients with Gr3 TEAE: Asthenia: 0 n
  Patients with Gr3 TEAE: Back pain: 0 n
  Patients with Gr3 TEAE: Constipation: 0 n
  Patients with Gr3 TEAE: Cough: 0 n
  Patients with Gr3 TEAE: Decreased appetite: 0 n
  Patients with Gr3 TEAE: Depression: 0 n
  Patients with Gr3 TEAE: Diarrhoea: 0 n
  Patients with Gr3 TEAE: Dry skin: 0 n
  Patients with Gr3 TEAE: Dyspnoea: 0 n
  Patients with Gr3 TEAE: Gastroesophageal reflux disease: 0 n
  Patients with Gr3 TEAE: Headache: 0 n
  Patients with Gr3 TEAE: Hot flush: 0 n
  Patients with Gr3 TEAE: Hypertension: 0 n
  Patients with Gr3 TEAE: Musculoskeletal pain: 0 n
  Patients with Gr3 TEAE: Nasopharyngitis: 0 n
  Patients with Gr3 TEAE: Pyrexia: 0 n
  Patients with Gr3 TEAE: Rhinitis allergic: 0 n
  Patients with Gr3 TEAE: Urinary tract infection: 0 n
  Patients with related Gr3 TEAE: ALL: 0 n
  Patients with related Gr3 TEAE: ALT increased: 0 n
  Patients with related Gr3 TEAE: AST increased: 0 n
  Patients with related Gr3 TEAE: Abdominal pain: 0 n
  Patients with related Gr3 TEAE: Abdominal pain upper: 0 n
  Patients with related Gr3 TEAE: Arthralgia: 0 n
  Patients with related Gr3 TEAE: Asthenia: 0 n
  Patients with related Gr3 TEAE: Back pain: 0 n
  Patients with related Gr3 TEAE: Constipation: 0 n
  Patients with related Gr3 TEAE: Cough: 0 n
  Patients with related Gr3 TEAE: Decreased appetite: 0 n
  Patients with related Gr3 TEAE: Depression: 0 n
  Patients with related Gr3 TEAE: Diarrhoea: 0 n
  Patients with related Gr3 TEAE: Dry skin: 0 n
  Patients with related Gr3 TEAE: Dyspnoea: 0 n
  Patients with related Gr3 TEAE: Fatigue: 0 n
  Patients with related Gr3 TEAE: Gastroesophageal reflux disease: 0 n
  Patients with related Gr3 TEAE: Headache: 0 n
  Patients with related Gr3 TEAE: Hot flush: 0 n
  Patients with related Gr3 TEAE: Hypertension: 0 n
  Patients with related Gr3 TEAE: Musculoskeletal pain: 0 n
  Patients with related Gr3 TEAE: Nasopharyngitis: 0 n
  Patients with related Gr3 TEAE: Nausea: 0 n
  Patients with related Gr3 TEAE: Pyrexia: 0 n
  Patients with related Gr3 TEAE: Rhinitis allergic: 0 n
  Patients with related Gr3 TEAE: Urinary tract infection: 0 n
  Patients with related Gr3 TEAE: Vomiting: 0 n
  Patients with related TEAE: ALT increased: 0 n
  Patients with related TEAE: AST increased: 0 n
  Patients with related TEAE: Back pain: 0 n
  Patients with related TEAE: Headache: 0 n
  Patients with related TEAE: Nasopharyngitis: 0 n
  Patients with related TEAE: Pyrexia: 0 n
  Patients with related TEAE: Rhinitis allergic: 0 n
[1]; Part B, N=49
  number of SAEs of grade ≥3: 14
[1]; Part B, not considered related
  laboratory abnormality reported as adverse event: alkaline phosphatase increase: 1
  laboratory abnormality reported as adverse event: hyperbilirubinemia: 2
  laboratory abnormality reported as adverse event: hypercalcemia: 1
  laboratory abnormality reported as adverse event: increase of alanine amino transferase: 3
  laboratory abnormality reported as adverse event: increase of aspartate amino transferase: 3
[1]; whole study
  related serious adverse events: no related serious adverse events
[2]; 400 mg PART B (N = 11)
  Best Overall Response: Complete Response (CR), number of patients: 0 n
  Best Overall Response: Partial Response (PR), % of patients: (27.3) %
  Best Overall Response: Partial Response (PR), number of patients: 3 n
  Best Overall Response: Progressive Disease (PD), % of patients: (18.2) %
  Best Overall Response: Progressive Disease (PD), number of patients: 2 n
  Best Overall Response: Stable Disease (SD), % of patients: (54.5) %
  Best Overall Response: Stable Disease (SD), number of patients: 6 n
  Clinical Benefit Rate, % of patients: (63.6) %
  Clinical Benefit Rate, number of patients: 7 n
  Overall Response Rate (confirmed CR and PR), % of patients: (27.3) %
  Overall Response Rate (confirmed CR and PR), number of patients: 3 n
[2]; [3]
  Best Overall Response: Complete Response (CR), number of patients: 0 n
  Best Overall Response: Partial Response (PR), % of patients: (21.4) %
  Best Overall Response: Partial Response (PR), number of patients: 3 n
  Best Overall Response: Progressive Disease (PD), % of patients: (21.4) %
  Best Overall Response: Progressive Disease (PD), number of patients: 3 n
  Best Overall Response: Stable Disease (SD), % of patients: (57.1) %
  Best Overall Response: Stable Disease (SD), number of patients: 8 n
  Clinical Benefit Rate, % of patients: (64.3) %
  Clinical Benefit Rate, number of patients: 9 n
  Overall Response Rate (confirmed CR and PR), % of patients: (21.4) %
  Overall Response Rate (confirmed CR and PR), number of patients: 3 n
[2]; [4]
  CBR: 35.6%
  ORR: 6.8%
[2]; [5]
  CBR: 64.3%
  ORR: 21.4%
[2]; [6]
  CBR: 46.9%
  ORR: 12.5%
[2]; ESR1 mutated patients (9/28)
  Clinical Benefit Rate (CBR): 32.1%
[2]; patients with wild-type ESR1 (12/30)
  Clinical Benefit Rate (CBR): 40.0%
[2]; pooled: All, N=59, by investigator
  Complete Response (CR): 0 n
[2]; pooled: Part A >=150 mg, N=13, by investigator
  Complete Response (CR): 0 n
[2]; pooled: Part B 400 mg, N=46, by investigator
  Complete Response (CR): 0 n
[2]; [7]
  ORR: 21.4%
  PD: 21.4%
  PRs: 21.4%
[2]; sub-population of 14 patients with neither prior targeted therapies nor SERD (9/14)
  CBR: 64.3%
[2]; ≤3 prior lines, not both chemotherapy and CDK4/6 inhibitor, no mTOR inhibitor: All, N=32
  Complete Response (CR): 0 n
[2]; ≤3 prior lines, not both chemotherapy and CDK4/6 inhibitor, no mTOR inhibitor: Part A ≥150 mg, N=6
  Complete Response (CR): 0 n
[2]; ≤3 prior lines, not both chemotherapy and CDK4/6 inhibitor, no mTOR inhibitor: Part B 400 mg, N=26
  Complete Response (CR): 0 n
[2]; ≥150 mg PART A (N = 3)
  Best Overall Response: Complete Response (CR), number of patients: 0 n
  Best Overall Response: Partial Response (PR), number of patients: 0 n
  Best Overall Response: Progressive Disease (PD), % of patients: 33.3%
  Best Overall Response: Progressive Disease (PD), number of patients: 1 n
  Best Overall Response: Stable Disease (SD), % of patients: 66.7%
  Best Overall Response: Stable Disease (SD), number of patients: 2 n
  Clinical Benefit Rate, % of patients: 66.7%
  Clinical Benefit Rate, number of patients: 2 n
  Overall Response Rate (confirmed CR and PR), number of patients: 0 n
